Measurements reported in article PMC9516332 (Frontiers in Oncology, 2022).
pIC50: −log10 of the molar value. Where two headings read alike, the source gives them in different places.

How the values were obtained:
[1] = target: T1, panel of 255 wild-type kinases (Homo sapiens, UniProt Q9BZL6); experiment: Kinase panel profiling at 1 µmol/L (MSA or IMAP), percentage inhibition; assay type: biochemical; conditions: kinase PKD2; 1 µmol/L single concentration; read-out: %-inhibition at 1 µmol/L, PKD2
T1 sequence (Q9BZL6 1-878): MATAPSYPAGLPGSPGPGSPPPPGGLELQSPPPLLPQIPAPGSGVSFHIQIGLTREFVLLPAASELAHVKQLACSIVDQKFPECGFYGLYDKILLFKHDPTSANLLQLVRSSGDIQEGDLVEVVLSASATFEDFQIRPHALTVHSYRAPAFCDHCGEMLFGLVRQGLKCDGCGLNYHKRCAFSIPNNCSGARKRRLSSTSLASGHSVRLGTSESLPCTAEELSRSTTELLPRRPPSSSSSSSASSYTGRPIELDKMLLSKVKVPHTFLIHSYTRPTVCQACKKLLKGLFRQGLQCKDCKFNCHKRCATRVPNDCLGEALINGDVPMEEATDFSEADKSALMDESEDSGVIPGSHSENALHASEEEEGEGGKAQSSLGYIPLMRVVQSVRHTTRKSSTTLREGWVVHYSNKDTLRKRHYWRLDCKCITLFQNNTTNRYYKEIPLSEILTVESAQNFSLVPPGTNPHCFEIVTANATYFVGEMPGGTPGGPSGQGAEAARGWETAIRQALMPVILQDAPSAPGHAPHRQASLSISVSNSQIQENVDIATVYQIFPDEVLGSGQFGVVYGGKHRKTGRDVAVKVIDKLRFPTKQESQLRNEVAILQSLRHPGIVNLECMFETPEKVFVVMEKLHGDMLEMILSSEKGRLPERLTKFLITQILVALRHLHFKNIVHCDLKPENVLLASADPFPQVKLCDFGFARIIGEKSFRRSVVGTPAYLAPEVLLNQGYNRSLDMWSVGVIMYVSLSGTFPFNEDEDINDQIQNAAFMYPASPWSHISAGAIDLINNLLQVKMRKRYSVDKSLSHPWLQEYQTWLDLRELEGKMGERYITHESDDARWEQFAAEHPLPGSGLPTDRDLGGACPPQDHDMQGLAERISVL

[2] = tested on: AP-1060 (ETV6-NTRK3); experiment: Cell viability assay; conditions: read-out: IC50 in cell proliferation assay
[3] = tested on: 134 cancer cell lines; experiment: Cell viability assay (ATPlite, 72 hours), IC50 on cancer cell line panel

FC(F)(F)c1ccc(CNc2ccc(Cc3c[nH]c4ncc(Cl)cc34)cn2)cn1 [pexidartinib]
4.63: pIC50 ([3]; Homo sapiens, G-361, read-out: IC50 in cell proliferation assay, cell line G-361 (BRAF p.V600E))
8.00: pIC50 ([3]; Homo sapiens, EOL1, read-out: IC50 in cell proliferation assay, cell line EoL-1 (FIP1L1-PDGFRA))
4.74: pIC50 ([3]; Homo sapiens, MCF7, read-out: IC50 in cell proliferation assay, MCF-7 cell line)
< 4.50: pIC50 [2] | pIC50 ([3]; HEC-6, read-out: IC50 in cell proliferation assay, HEC-6 cell line (EGFR p.A289V)) | pIC50 ([3]; Homo sapiens, 769-P, read-out: IC50 in cell proliferation assay, cell line 769-P) | pIC50 ([3]; Homo sapiens, 786-0, read-out: IC50 in cell proliferation assay, cell line 786-O) | pIC50 ([3]; Homo sapiens, A 172, read-out: IC50 in cell proliferation assay, cell line A-172) | pIC50 ([3]; Homo sapiens, A498, read-out: IC50 in cell proliferation assay, cell line A-498) | pIC50 ([3]; Homo sapiens, A549, read-out: IC50 in cell proliferation assay, cell line A-549) | pIC50 ([3]; Homo sapiens, A704, read-out: IC50 in cell proliferation assay, cell line A-704) | pIC50 ([3]; Homo sapiens, A-375, read-out: IC50 in cell proliferation assay, cell line A-375 (BRAF p.V600E)) | pIC50 ([3]; Homo sapiens, ACHN, read-out: IC50 in cell proliferation assay, cell line ACHN) | pIC50 ([3]; Homo sapiens, ASPC1, read-out: IC50 in cell proliferation assay, cell line AsPC-1) | pIC50 ([3]; Homo sapiens, BT-20, read-out: IC50 in cell proliferation assay, cell line BT-20) | pIC50 ([3]; Homo sapiens, BT-474, read-out: IC50 in cell proliferation assay, cell line BT-474 (ERBB2 amplification)) | pIC50 ([3]; Homo sapiens, BT-549, read-out: IC50 in cell proliferation assay, cell line BT-549) | pIC50 ([3]; Homo sapiens, BXPC-3, read-out: IC50 in cell proliferation assay, cell line BxPC-3) | pIC50 ([3]; Homo sapiens, C-33-A, read-out: IC50 in cell proliferation assay, cell line C-33 A) | pIC50 ([3]; Homo sapiens, CAL-27, read-out: IC50 in cell proliferation assay, cell line CAL-27) | pIC50 ([3]; Homo sapiens, CCF-STTG1, read-out: IC50 in cell proliferation assay, cell line CCF-STTG1) | pIC50 ([3]; Homo sapiens, CCRF-CEM, read-out: IC50 in cell proliferation assay, cell line CCRF-CEM) | pIC50 ([3]; Homo sapiens, COLO 205, read-out: IC50 in cell proliferation assay, cell line COLO 205 (BRAF p.V600E)) | pIC50 ([3]; Homo sapiens, COLO-829, read-out: IC50 in cell proliferation assay, cell line COLO 829 (BRAF p.V600E)) | pIC50 ([3]; Homo sapiens, DLD-1, read-out: IC50 in cell proliferation assay, cell line DLD-1) | pIC50 ([3]; Homo sapiens, DU-4475, read-out: IC50 in cell proliferation assay, cell line DU4475 (BRAF p.V600E)) | pIC50 ([3]; Homo sapiens, Daoy, read-out: IC50 in cell proliferation assay, cell line Daoy) | pIC50 ([3]; Homo sapiens, DoTc2-4510, read-out: IC50 in cell proliferation assay, cell line DoTc2 4510) | pIC50 ([3]; Homo sapiens, FaDu, read-out: IC50 in cell proliferation assay, cell line FaDu) | pIC50 ([3]; Homo sapiens, HCC827, read-out: IC50 in cell proliferation assay, cell line HCC827 (EGFR exon19del)) | pIC50 ([3]; Homo sapiens, HCC4006, read-out: IC50 in cell proliferation assay, cell line HCC4006 (EGFR exon19del)) | pIC50 ([3]; Homo sapiens, HCT-15, read-out: IC50 in cell proliferation assay, cell line HCT 15) | pIC50 ([3]; Homo sapiens, HCT-116, read-out: IC50 in cell proliferation assay, cell line HCT 116) | pIC50 ([3]; Homo sapiens, HEC-1, read-out: IC50 in cell proliferation assay, HEC-1 cell line) | pIC50 ([3]; Homo sapiens, HEC-1B, read-out: IC50 in cell proliferation assay, HEC-1-B cell line (EGFR p.A864V)) | pIC50 ([3]; Homo sapiens, HL-60, read-out: IC50 in cell proliferation assay, HL-60 cell line) | pIC50 ([3]; Homo sapiens, HT, read-out: IC50 in cell proliferation assay, HT cell line) | pIC50 ([3]; Homo sapiens, HT-1080, read-out: IC50 in cell proliferation assay, HT-1080 cell line) | pIC50 ([3]; Homo sapiens, Hs746T, read-out: IC50 in cell proliferation assay, Hs 746.T cell line (MET exon14skip + amplification)) | pIC50 ([3]; Homo sapiens, J82, read-out: IC50 in cell proliferation assay, J82 cell line) | pIC50 ([3]; Homo sapiens, Jurkat E6.1, read-out: IC50 in cell proliferation assay, Jurkat E6.1 cell line) | pIC50 ([3]; Homo sapiens, K562, read-out: IC50 in cell proliferation assay, K-562 cell line) | pIC50 ([3]; Homo sapiens, KLE, read-out: IC50 in cell proliferation assay, KLE cell line) | pIC50 ([3]; Homo sapiens, KMS-11, read-out: IC50 in cell proliferation assay, KMS-11 cell line (FGFR3 p.Y373C)) | pIC50 ([3]; Homo sapiens, KU812, read-out: IC50 in cell proliferation assay, Ku812 cell line) | pIC50 ([3]; Homo sapiens, LC-2-ad, read-out: IC50 in cell proliferation assay, LC-2/ad cell line (CCDC6-RET)) | pIC50 ([3]; Homo sapiens, LNCaP-Clone-FGC, read-out: IC50 in cell proliferation assay, LNCaP clone FGC cell line) | pIC50 ([3]; Homo sapiens, LS174T, read-out: IC50 in cell proliferation assay, LS174T cell line) | pIC50 ([3]; Homo sapiens, LS-411N, read-out: IC50 in cell proliferation assay, LS411N cell line (BRAF p.V600E)) | pIC50 ([3]; Homo sapiens, LoVo, read-out: IC50 in cell proliferation assay, LoVo cell line) | pIC50 ([3]; Homo sapiens, MDA-MB-231, read-out: IC50 in cell proliferation assay, MDA-MB-231 cell line) | pIC50 ([3]; Homo sapiens, MDA-MB-453, read-out: IC50 in cell proliferation assay, MDA-MB-453 cell line) | pIC50 ([3]; Homo sapiens, MDA-MB-468, read-out: IC50 in cell proliferation assay, MDA-MB-468 cell line) | pIC50 ([3]; Homo sapiens, MG-63, read-out: IC50 in cell proliferation assay, MG-63 cell line) | pIC50 ([3]; Homo sapiens, MIA PaCa-2, read-out: IC50 in cell proliferation assay, MIA PaCa-2 cell line) | pIC50 ([3]; Homo sapiens, MKN-45, read-out: IC50 in cell proliferation assay, MKN45 cell line (MET amplification))
4.60: pIC50 ([3]; Homo sapiens, AN3-CA, read-out: IC50 in cell proliferation assay, cell line AN3-CA (FGFR2 p.N549K))
4.64: pIC50 ([3]; Homo sapiens, HuTu80, read-out: IC50 in cell proliferation assay, HuTu 80 cell line)
4.62: pIC50 ([3]; Homo sapiens, A-427, read-out: IC50 in cell proliferation assay, cell line A-427)
5.12: pIC50 ([3]; Homo sapiens, KG-1, read-out: IC50 in cell proliferation assay, KG-1 cell line (FGFR1OP2-FGFR1))
5.00: pIC50 ([3]; Homo sapiens, KATO III, read-out: IC50 in cell proliferation assay, KATO III cell line (FGFR2 amplification))
4.59: pIC50 ([3]; Homo sapiens, AU565, read-out: IC50 in cell proliferation assay, cell line AU565 (ERBB2 amplification)) | pIC50 ([3]; Homo sapiens, Hs-578T, read-out: IC50 in cell proliferation assay, Hs 578T cell line)
6.64: pIC50 ([3]; Homo sapiens, Kasumi 1, read-out: IC50 in cell proliferation assay, Kasumi-1 cell line (KIT p.N822K))
-5%: inhibition at 1 µM [1]
6.03: pIC50 ([3]; Homo sapiens, A204, read-out: IC50 in cell proliferation assay, cell line A-204)
6.72: pIC50 ([3]; Homo sapiens, MOLM-13, read-out: IC50 in cell proliferation assay, MOLM-13 cell line (FLT3 ITD))
